Measured values taken from patent US12366579B2, “Sulfur-heterocycle exchange chemistry and uses thereof” (University of Virginia Patent Foundation, priority 2019, dated 2025).

Experiments:
Assay type in all cases: binding
[1] = biological target: T1, recombinant human diacylglycerol kinase-alpha (DGKA) (Homo sapiens, UniProt P23743); assay: Gel-based probe labeling of recombinant DGKA with TH SuTEx probes; conditions: FIG. 39D, left panel
T1 construct: FLAG (N); made in house; host or cells: HEK293T, transient transfection; lysate used unpurified
T1 sequence (P23743 whole entry): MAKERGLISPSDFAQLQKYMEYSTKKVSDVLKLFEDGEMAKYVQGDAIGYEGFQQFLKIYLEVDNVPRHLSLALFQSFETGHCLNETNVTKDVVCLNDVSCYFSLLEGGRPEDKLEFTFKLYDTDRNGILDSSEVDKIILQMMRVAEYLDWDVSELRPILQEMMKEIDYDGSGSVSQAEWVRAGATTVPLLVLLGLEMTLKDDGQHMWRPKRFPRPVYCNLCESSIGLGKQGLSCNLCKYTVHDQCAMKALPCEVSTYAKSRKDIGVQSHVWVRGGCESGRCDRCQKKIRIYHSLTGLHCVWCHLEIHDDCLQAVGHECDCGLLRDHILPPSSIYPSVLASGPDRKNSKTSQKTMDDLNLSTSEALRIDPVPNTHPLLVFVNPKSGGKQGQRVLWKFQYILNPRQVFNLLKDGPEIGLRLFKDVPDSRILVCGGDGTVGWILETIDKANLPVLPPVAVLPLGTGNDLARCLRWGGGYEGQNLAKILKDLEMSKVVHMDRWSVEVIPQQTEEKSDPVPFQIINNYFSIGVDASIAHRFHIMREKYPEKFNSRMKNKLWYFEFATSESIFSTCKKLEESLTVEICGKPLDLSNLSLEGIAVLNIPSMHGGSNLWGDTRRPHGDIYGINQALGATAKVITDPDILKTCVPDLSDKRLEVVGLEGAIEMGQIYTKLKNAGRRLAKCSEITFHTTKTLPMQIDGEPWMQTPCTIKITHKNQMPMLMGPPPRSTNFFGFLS
Method: Gel-Based Chemical Proteomic Assay
Proteome aliquots (2 mg/mL, 49 μL) were treated with probes at indicated concentration (1 μL, 50× stock in DMSO) at 37° C. for 1 h. The subsequent conjugation with fluorophore was accomplished by copper-catalyzed azide-alkyne cycloaddition (CuAAC) with rhodamine-azide (TAMRA-azide, 1.25 mM, 1 μL, final concentration of 25 μM) in the presence of tris(2-carboxyethyl)phosphine (TCEP, 50 mM fresh in water, 1 μL, final concentration of 1 mM), tris[(1-benzyl-1H-1,2,3-triazol-4-yl)methyl]amine (TBTA, 1.7 mM in 4:1 t-butanol/DMSO, 3 μL, final concentration of 100 μM) and CuSO4 (50 mM, 1 μL, final concentration of 1 mM). For samples of live cell treatment, it started with click reaction without the step of the probe treatment in vitro. After 1 h incubation at room temperature, reactions were quenched by adding 4×SDS-PAGE loading buffer and beta-mercaptoethanol (17 μL) and samples were resolved by SDS-PAGE followed by in-gel fluorescence scanning.

[2] = biological target: T2, membrane proteins in human cell proteomes (Homo sapiens, UniProt P51970); assay: Chemical proteomic identification of membrane protein lysine sites modified by TH211; conditions: NDUA8 human, Uniprot P51970; amino acid modified K
T2 construct: endogenous in cells
T2 sequence (P51970 whole entry): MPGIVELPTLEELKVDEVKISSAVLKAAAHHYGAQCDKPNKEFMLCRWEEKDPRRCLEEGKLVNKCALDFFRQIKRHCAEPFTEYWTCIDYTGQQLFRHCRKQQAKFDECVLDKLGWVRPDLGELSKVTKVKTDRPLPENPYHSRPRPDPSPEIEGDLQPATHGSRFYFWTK
Method: (§1) The light proteome aliquots (2.3 mg/mL, 432 μL) were treated with the probe (5 μL, 100× fresh stock in DMSO) and the heavy proteome aliquots were treated with either the same probe or DMSO (no probe) at 37° C. for 1 h. Then the samples were subjected to click reaction with the desthiobiotin-PEG3-azide (10 mM in DMSO, 10 μL, final concentration 200 μM) in the presence of TCEP (50 mM, 10 μL), TBTA (1.7 mM, 33 μL) and CuSO4 (50 mM, 10 μL) at room temperature for 1 h. The light and the heavy were mixed in the chloroform-methanol extraction step. The subsequent steps including reduction with dithiothreitol, alkylation with iodoacetamide, digestion with Trypsin/Lys-C, enrichment with avidin beads were conducted as previously described.^72,51
(§2) Data acquisition: The enriched peptide samples were analyzed by LC-MS/MS on an Easy-nLC 1200 (Thermo Scientific, Waltham, Massachusetts, United States of America) coupled with an Orbitrap Q Exactive Plus mass spectrometer (Thermo Scientific, Waltham, Massachusetts, United States of America). […] A top 10 data-dependent acquisition method was used, which consisted of one full scan […] scan (m/z 375-1,500) followed by ten MS2 scans of the most abundant ions recorded in the […] scan.
(§3) Data analysis: Identification of peptides and target proteins from the LC-MS/MS raw data was achieved using the Byonic software package (Protein Metrics Inc., Cupertino, California, United States of America) to search against a modified human protein database (UniProt human protein database, angiotensin I and vasoactive intestinal peptide standards; 40660 proteins) with parameters previously described.^72 Identification of probe-modified peptides was accomplished with variable (common) modification of +635.27374 Da for TH211, +608.26284 for TH214, +578.25228 for TH216 on tyrosine and lysine residues. Other added mass such as variable methionine oxidation (+15.9949 Da), fixed cysteine carbamidomethylation (+57.02146 Da) and the SILAC heavy amino acids (+10.0083 Da for R, +8.0142 Da for K) were included in search. The results from Byonic search were imported into Skyline-daily to determine SILAC ratio (SR) of light/heavy peptides.^51 To account for variations in mixing and sample preparation, SRs of peptide from probe/no-probe (the light was treated with the probe while the heavy was treated with DMSO) were normalized to those from probe/probe (both the light and the heavy were treated with the probe). Unless otherwise stated, the results from Skyline-daily output were filtered in R to keep peptides of high quality that meet the following criteria: Byonic score ≥300; a precursor mass error within 5 ppm; normalized SR≥5, with both isotop dot-product (iDOTP) and ratio dot-product (rDOTP)≥0.8. Comparison of probe-modified sites across all probes and cells were performed using the R package ggplot2 and Venn diagrams were generated with the VennDiagram R package.^72 Other bioinformatics analysis such as the domain enrichment analysis and the DrugBank analysis were performed as previously described.^72

[3] = biological target: T3, membrane proteins in human cell proteomes (Homo sapiens, UniProt Q9P032); assay: as above; conditions: NDUF4 human, Uniprot Q9P032; amino acid modified K
T3 construct: endogenous in cells
T3 sequence (Q9P032 whole entry): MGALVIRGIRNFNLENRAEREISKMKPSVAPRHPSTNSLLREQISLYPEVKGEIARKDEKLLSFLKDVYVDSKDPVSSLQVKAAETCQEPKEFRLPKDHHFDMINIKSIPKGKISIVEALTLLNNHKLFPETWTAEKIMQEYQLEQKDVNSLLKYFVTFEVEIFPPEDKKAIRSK
Method: as §1, §2, §3

[4] = tested on: membrane proteins in human cell proteomes; assay: as above; conditions: amino acid modified K
Method: as §1, §2, §3

[5] = biological target: T4, membrane proteins in human cell proteomes (Homo sapiens, UniProt Q9BQB6); assay: as above; conditions: VKOR1 human, Uniprot Q9BQB6, amino acid modified K
T4 construct: endogenous in cells
T4 sequence (Q9BQB6 whole entry): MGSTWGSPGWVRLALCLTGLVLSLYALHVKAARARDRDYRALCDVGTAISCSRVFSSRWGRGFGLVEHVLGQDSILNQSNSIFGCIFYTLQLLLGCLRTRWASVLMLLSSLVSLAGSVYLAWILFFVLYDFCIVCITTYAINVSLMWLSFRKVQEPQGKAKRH
Method: as §1, §2, §3

[6] = biological target: T5, membrane proteins in human cell proteomes (Homo sapiens, UniProt Q02750); assay: as above; conditions: MP2K1 human, Uniprot Q02750; amino acid modified K
T5 construct: endogenous in cells
T5 sequence (Q02750 whole entry): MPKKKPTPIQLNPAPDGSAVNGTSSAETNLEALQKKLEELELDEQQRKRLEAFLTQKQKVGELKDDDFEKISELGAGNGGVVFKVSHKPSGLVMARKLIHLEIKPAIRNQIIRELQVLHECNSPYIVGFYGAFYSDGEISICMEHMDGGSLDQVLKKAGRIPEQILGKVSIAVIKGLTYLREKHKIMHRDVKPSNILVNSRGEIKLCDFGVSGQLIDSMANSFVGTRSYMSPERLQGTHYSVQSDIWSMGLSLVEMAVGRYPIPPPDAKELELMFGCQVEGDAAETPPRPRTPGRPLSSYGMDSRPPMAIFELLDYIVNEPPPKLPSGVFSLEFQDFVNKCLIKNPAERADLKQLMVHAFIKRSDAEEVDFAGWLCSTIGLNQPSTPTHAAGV
Method: as §1, §2, §3

Compound: C#CCNC(=O)c1ccc(S(=O)(=O)n2cc(CCN3CCC(=C(c4ccc(F)cc4)c4ccc(F)cc4)CC3)nn2)cc1 [TH211, 4-((4-(2-(4-(Bis(4-fluorophenyl)methylene)piperidin-1-yl)ethyl)-1H-1,2,3-triazol-1-yl)sulfonyl)-N-(prop-2-yn-1-yl)benzamide]
- fluorescent labeling of recombinant human DGKA [1]: concentration dependent manner
- Modified Amino Acid Number [2]: 172
- Modified Amino Acid Number [3]: 24
- Modified Amino Acid Number ([4]; NDUA5 human, Uniprot Q16718): 30
- Modified Amino Acid Number ([4]; NDUB3 human, Uniprot O42676): 39
- Modified Amino Acid Number ([4]; NU5M human, Uniprot P03915): 455
- Modified Amino Acid Number ([4]; PYRD human, Uniprot Q02127): 166
- Modified Amino Acid Number ([5]; lysine residue 152): 152
- Modified Amino Acid Number ([5]; lysine residue 159): 159
- Modified Amino Acid Number [6]: 97
